Results: ChEMBL document CHEMBL1201862, “PubChem BioAssay data set” (2004)
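Grown in 96-well plates, cells were treated for 48 hours with each compound at five concentrations. Insufficient inhibition: endpoint recorded as highest concentration tested. GI50 is the concentration that inhibits growth by half.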 Activity calls are given as the source filed them. Rule as the data show it: active = GI50 up to about 1.1 µM and inactive = higher.

Legend:
Assay in all cases: growth of human tumour cells (NCI), 48 h
NCI-H226 = system: NCI-H226
A498 = system: A498
TK-10 = system: TK-10
SW-620 = system: SW-620
SK-MEL-2 = system: SK-MEL-2
ACHN = system: ACHN
SN12C = system: SN12C
CAKI-1 = system: CAKI-1
MDA-MB-435 = system: MDA-MB-435
SNB-19 = system: SNB-19
COLO 205 = system: COLO 205
LOX IMVI = system: LOX IMVI
RPMI-8226 = system: RPMI-8226
Hs-578T = system: Hs-578T
Malme-3M = system: Malme-3M
SK-MEL-28 = system: SK-MEL-28
786-0 = system: 786-0
A549 = system: A549
UO-31 = system: UO-31

Row | Compound | GI50 (NCI-H226) | GI50 (A498) | GI50 (TK-10) | GI50 (SW-620) | GI50 (SK-MEL-2) | GI50 (ACHN) | GI50 (SN12C) | GI50 (CAKI-1) | GI50 (MDA-MB-435) | GI50 (SNB-19) | GI50 (COLO 205) | GI50 (LOX IMVI) | GI50 (RPMI-8226) | GI50 (Hs-578T) | GI50 (Malme-3M) | GI50 (SK-MEL-28) | GI50 (786-0) | GI50 (A549) | GI50 (UO-31)
1 | Nc1c2cc3ccc2nc2ccc(cc12)OCCOCCOCCOCCOCCOCCO3 | > 10 µM (inactive) | > 10 µM (inactive) | > 10 µM (inactive) | > 10 µM (inactive) | > 10 µM (inactive) | > 10 µM (inactive) | > 10 µM (inactive) | > 10 µM (inactive) | > 10 µM (inactive) | > 10 µM (inactive) | > 10 µM (inactive) | > 10 µM (inactive) | > 10 µM (inactive) | > 10 µM (inactive) | > 10 µM (inactive) | > 10 µM (inactive) | > 10 µM (inactive) | > 10 µM (inactive) | 
2 | COc1ccc(C(=O)CC(c2ccccc2)[C@H]2C(c3ccc(OC)cc3)=Nc3c(nc(SC)n(C)c3=O)NC2c2ccccc2)cc1 (stereo partly specified) | > 100 µM (inactive) | > 100 µM (inactive) | > 100 µM (inactive) | > 100 µM (inactive) | > 100 µM (inactive) |  | > 100 µM (inactive) | > 100 µM (inactive) | > 100 µM (inactive) | > 100 µM (inactive) | > 100 µM (inactive) | > 100 µM (inactive) | > 100 µM (inactive) | > 100 µM (inactive) |  | > 100 µM (inactive) | > 100 µM (inactive) | > 100 µM (inactive) | 
3 | Cc1[nH]n(-c2nc(O)c(-c3ccccc3)c(=O)[nH]2)c(=O)c1CCO | > 100 µM (inactive) | > 100 µM (inactive) | > 100 µM (inactive) | > 100 µM (inactive) | > 100 µM (inactive) | > 100 µM (inactive) | > 100 µM (inactive) | > 100 µM (inactive) | > 100 µM (inactive) | > 100 µM (inactive) | > 100 µM (inactive) |  | > 100 µM (inactive) | > 100 µM (inactive) | > 100 µM (inactive) | > 100 µM (inactive) | > 100 µM (inactive) | > 100 µM (inactive) | > 100 µM (inactive)
4 | CCCCN(CCCC)CC(=O)c1ccc2cc(Cl)c3ccccc3c2c1 | 25.3 µM (inactive) | 20.7 µM (inactive) | 50 µM (inactive) | 29.8 µM (inactive) | 25.5 µM (inactive) | 20.4 µM (inactive) | 50.7 µM (inactive) | 29.5 µM (inactive) | 30.4 µM (inactive) | 33.7 µM (inactive) | 14.9 µM (inactive) | 23.4 µM (inactive) | 7.98 µM (inactive) | 35.7 µM (inactive) | 37.6 µM (inactive) |  | 57.4 µM (inactive) | 27.2 µM (inactive) | 20.6 µM (inactive)
5 | O=c1[nH]c2ccc(CC(=S)N3CCN(c4ccccc4)CC3)cc2s1 | 14.3 µM (inactive) | 62.2 µM (inactive) | 36.6 µM (inactive) | 71.9 µM (inactive) | 82.2 µM (inactive) | 18 µM (inactive) | 70.6 µM (inactive) | 77.1 µM (inactive) | 72.8 µM (inactive) | > 100 µM (inactive) | 57.1 µM (inactive) | 67 µM (inactive) | 12.7 µM (inactive) | 13.8 µM (inactive) | 13.5 µM (inactive) | > 100 µM (inactive) | 34.4 µM (inactive) |  | 0.063 µM (active)
6 | O=c1c(C(c2ccco2)c2c(O)oc3ccccc3c2=O)c(O)oc2ccccc12 | 64.9 µM (inactive) | > 100 µM (inactive) | 26.7 µM (inactive) | 21.4 µM (inactive) | 51.6 µM (inactive) | 27.1 µM (inactive) | 25.1 µM (inactive) | 21.8 µM (inactive) | 31.6 µM (inactive) | 44.6 µM (inactive) | 22.3 µM (inactive) | 28.2 µM (inactive) | 26.1 µM (inactive) | 51.1 µM (inactive) | 20.5 µM (inactive) | 21.2 µM (inactive) | 25.1 µM (inactive) |  | 25.7 µM (inactive)
7 | O=C(CN1c2ccccc2Sc2ccccc21)N1CCNCC1 | 78.7 µM (inactive) | 34.6 µM (inactive) | > 100 µM (inactive) | > 100 µM (inactive) | > 100 µM (inactive) | > 100 µM (inactive) | > 100 µM (inactive) |  | > 100 µM (inactive) | > 100 µM (inactive) | > 100 µM (inactive) | > 100 µM (inactive) | > 100 µM (inactive) | > 100 µM (inactive) | > 100 µM (inactive) | > 100 µM (inactive) | > 100 µM (inactive) | > 100 µM (inactive) | 95.5 µM (inactive)
8 | COc1cccc(N2C(=O)C3c4[nH]c5ccccc5c4C4CCCC4C3C2=O)c1 (stereo unspecified) | 2.57 µM (inactive) | 2.17 µM (inactive) | > 10 µM (inactive) | 7.98 µM (inactive) | > 10 µM (inactive) | 5.93 µM (inactive) | 3.01 µM (inactive) | 7.16 µM (inactive) | > 10 µM (inactive) | 5.81 µM (inactive) | > 10 µM (inactive) | 5.38 µM (inactive) | > 10 µM (inactive) | 3.61 µM (inactive) | 2.78 µM (inactive) | > 10 µM (inactive) | 2.14 µM (inactive) | 4.62 µM (inactive) | 
9 | CC(C)CC(NC=O)C(=O)NC(Cc1ccccc1)NC(=O)CNC(=O)C(C)NC(=O)C(N)Cc1ccc(O)cc1 (stereo unspecified) | > 100 µM (inactive) | 64.6 µM (inactive) | > 100 µM (inactive) | > 100 µM (inactive) |  | > 100 µM (inactive) | > 100 µM (inactive) | > 100 µM (inactive) | > 100 µM (inactive) | > 100 µM (inactive) | > 100 µM (inactive) | > 100 µM (inactive) | > 100 µM (inactive) | > 100 µM (inactive) |  | > 100 µM (inactive) | > 100 µM (inactive) | > 100 µM (inactive) | > 100 µM (inactive)
10 | CC1(C)c2ccccc2C(O)C12CCC(=O)CC2 (stereo unspecified) | > 100 µM (inactive) | > 100 µM (inactive) | > 100 µM (inactive) | > 100 µM (inactive) | > 100 µM (inactive) | > 100 µM (inactive) | > 100 µM (inactive) |  | > 100 µM (inactive) | > 100 µM (inactive) | > 100 µM (inactive) | > 100 µM (inactive) | > 100 µM (inactive) | > 100 µM (inactive) | > 100 µM (inactive) | > 100 µM (inactive) | > 100 µM (inactive) | 34 µM (inactive) | > 100 µM (inactive)
11 | COc1nncc2[nH]c(-c3ccccc3)cc12 | 80.9 µM (inactive) | 22.3 µM (inactive) | 53.1 µM (inactive) | > 100 µM (inactive) | 33.9 µM (inactive) | 54 µM (inactive) | 40.9 µM (inactive) | 96.8 µM (inactive) | 73.3 µM (inactive) | > 100 µM (inactive) | > 100 µM (inactive) | 65 µM (inactive) | 46.9 µM (inactive) | 44 µM (inactive) | > 100 µM (inactive) |  | 70 µM (inactive) | 65.3 µM (inactive) | 51.2 µM (inactive)
12 | COc1nc(C)nc2c1ncn2Cc1ccccc1 | > 100 µM (inactive) | > 100 µM (inactive) | > 100 µM (inactive) | > 100 µM (inactive) |  | > 100 µM (inactive) | > 100 µM (inactive) | 66.2 µM (inactive) | > 100 µM (inactive) | > 100 µM (inactive) | > 100 µM (inactive) | > 100 µM (inactive) | > 100 µM (inactive) | 99.8 µM (inactive) | > 100 µM (inactive) | > 100 µM (inactive) | > 100 µM (inactive) | > 100 µM (inactive) | 
13 | Cc1cc(C)c(-c2no/c(=N\S(=O)(=O)c3ccc(Cl)cc3)o2)c(C)c1 | > 100 µM (inactive) | > 100 µM (inactive) | > 100 µM (inactive) | > 100 µM (inactive) | 34 µM (inactive) | > 100 µM (inactive) | > 100 µM (inactive) | > 100 µM (inactive) | > 100 µM (inactive) | > 100 µM (inactive) | 41.4 µM (inactive) |  | 37.2 µM (inactive) | > 100 µM (inactive) | 75 µM (inactive) | > 100 µM (inactive) | > 100 µM (inactive) | > 100 µM (inactive) | > 100 µM (inactive)
14 | O=C(O)CCC(c1ccccc1)(c1ccccc1)c1ccccc1 | 88.5 µM (inactive) | 41.4 µM (inactive) | 52.5 µM (inactive) | 39.8 µM (inactive) | 22.9 µM (inactive) | 31 µM (inactive) | 38.9 µM (inactive) |  | 33 µM (inactive) | 42.3 µM (inactive) | 24.7 µM (inactive) | 45.1 µM (inactive) | 27 µM (inactive) | 29.9 µM (inactive) | > 100 µM (inactive) | 50.5 µM (inactive) | 62.2 µM (inactive) | 28.9 µM (inactive) | 38.9 µM (inactive)
15 | CC(O)[C@@]1(c2ccccc2)CC2(CCN(C)CC2)O[C@H]1C (stereo partly specified) | > 100 µM (inactive) | > 100 µM (inactive) | > 100 µM (inactive) | > 100 µM (inactive) | > 100 µM (inactive) | > 100 µM (inactive) |  | > 100 µM (inactive) | > 100 µM (inactive) | > 100 µM (inactive) | > 100 µM (inactive) | > 100 µM (inactive) | > 100 µM (inactive) | > 100 µM (inactive) | > 100 µM (inactive) | > 100 µM (inactive) | > 100 µM (inactive) | > 100 µM (inactive) | 39.8 µM (inactive)
